# Test results published in patent US20210115509A1, “BIOMARKER FOR IDENTIFYING SPECIFIC EXPOSURE TO KETONES AND METHOD OF IDENTIFICATION USING THE SAME” (KOREA INSTITUTE OF SCIENCE AND TECHNOLOGY, priority 2019, published 2021).
# Columns and labels:
# [1] = system: BEAS-2B human bronchial epithelial cell line; assay: MTT assay, cytotoxicity of ketone compounds in BEAS-2B cell line; format: cell-based; details: BEAS-2B, 48 hours, MTT
# Procedure: BEAS-2B (Korean Cell Line Bank), a human bronchial epithelial cell line, was cultured using RPMI 1640 medium (Gibco, USA) supplemented with 10% FBS until the cells grew to about a confluence of 70 to 80% in a 100 mm dish.
# Among ketones belonging to mVOCs (microbial volatile organic compounds) exposed to the environment, acetone, 2-butanone, 2-pentanone, 2-hexanone and 2-heptanone were selected, and the chemicals were dissolved in filtered distilled water (DW). A vehicle concentration was set to 0.1% or less in all experiments.
# MTT assay using a BEAS-2B cell line was performed in accordance with the method of Mossman et al. (J. Immunol. Methods, 65, 55-63, 1983).
# Specifically, the cells were seeded at a density of 3.5×10^4 cells/well in a 24-well plate and treated with the five ketone compounds dissolved in filtered distilled water, prepared in Example 1-2. After 48 hours, the result was mixed with 5 mg/ml of MTT (3-4,5-dimethylthiazol-2,5-diphenyltetrazolium bromide), added to a tube and incubated at 37° C. for 3 hours. Then, the medium was removed, the formed formazan crystal was dissolved in 500 μl of DMSO, and then 100 μl of the solution was transferred to a 96-well plate to measure an OD (optical density) value at 540 nm.
# [2] = system: BEAS-2B human bronchial epithelial cell line; assay: Gene expression change by high-throughput RNA sequencing (NextSeq 500) in ketone-exposed BEAS-2B cells; format: cell-based
# Procedure: RNA was extracted from cell samples of ketone-exposed and non-ketone-exposed groups using a TRIzol reagent (Life Technologies, USA) in accordance with the manufacturer's directions to isolate total RNA and the total RNA was purified using a RNeasy mini kit (Qiagen, USA). The concentration of each total RNA sample was determined by a ND-2000 spectrophotometer (Thermo Inc., DE, USA) as a spectrophotometer and Agilent 2100 Bioanalyzer (Agilent Technologies, USA).
# The establishment of libraries from the total RNA obtained in Example 2-1 in the experimental group and the normal control group exposed to the ketones was carried out using a QuantSeq 3′ mRNA-Seq Library Prep Kit (Lexogen, Inc., Austria) in accordance with the manufacturer's directions. 500 ng of the total RNA was hybridized with an oligo-dT primer including an Illumina-compatible sequence at the 5′ end of RNA, followed by reverse transcription. After degradation of the RNA template, a second strand was synthesized using a random primer including an Illumina-compatible linker sequence at the 5′ end thereof. Double-stranded libraries were purified using magnetic beads to remove all reaction components. The library was amplified in order to add the entire adapter sequence required for cluster production, and the completed cDNA library was purified from the PCR components.
# Sequencing was performed by high-throughput sequencing as single-end 75 sequencing using a NextSeq 500 (IIlumina, Inc., USA). Read count (RC) data was processed based on the quantile normalization method using EdgeR in R (R development Core Team, 2016) using Bioconductor (Gentleman et al., 2004). Gene classification was based on searches performed on DAVID (http://david.abcc.ncifcrf.gov/) and the Medline database (http://www.ncbi.nlm.nih.gov/).
# The extracted data were analyzed through normalization using Agilent GeneSpring GX 12.6.1 (Agilent technologies, CA, USA) to analyze the expression pattern of each gene.
# [3] = IC5 conc.: Acetone 5.38, 2-Butanone 22.27, 2-Pentanone 5.24, 2-Hexanone 14.82, 2-Heptanone 5.05 mM
# [4] = IC20 conc.: Acetone 71.90, 2-Butanone 106.21, 2-Pentanone 39.38, 2-Hexanone 52.51, 2-Heptanone 20.22 mM
structure (smiles),measurement,setting,value
"CC(C)=O [Acetone, acetone]",concentration (105) providing a survival rate (viability) of 95%,[1],5380 µM
same,concentration (1020) providing a survival rate (viability) of 80%,[1],71900 µM
same,Fold change ADRA2A (NM_000681),[2]; [3],0.179
same,Fold change ATRNL1 (NR_074088),[2]; [3],3.000
same,Fold change C12orf79 (NR_046159),[2]; [3],0.213
same,Fold change C14orf80 (NR_046159),[2]; [3],0.354
same,Fold change CALML3 (NM_001286399),[2]; [3],0.354
same,Fold change CCDC184 (NM_001013635),[2]; [3],12.166
same,Fold change CD37 (NM_001040031),[2]; [3],2.781
same,Fold change CDHR1 (NM_001171971),[2]; [3],0.409
same,Fold change CHL1 (NM_001253387),[2]; [3],0.224
same,Fold change COL4A3 (NM_000091),[2]; [3],4.046
same,Fold change CRLF2 (NM_022148),[2]; [3],0.355
same,Fold change CSF3R (NM_172313),[2]; [3],0.354
same,Fold change DNMBP-AS1 (NR_024130),[2]; [3],2.455
same,Fold change EGR1 (NM_001964),[2]; [3],0.422
same,Fold change GNA14 (NM_004297),[2]; [3],5.492
same,Fold change LOC728752 (NR_036504),[2]; [3],4.554
same,Fold change PAX8 (NM_003466),[2]; [3],2.753
same,Fold change PRRT3-AS1 (NR_046734),[2]; [3],2.261
same,Fold change RBP3 (NM_002900),[2]; [3],0.354
same,Fold change SEPT14 (NM_207366),[2]; [3],0.214
same,Fold change SERPINA12 (NM_001304461),[2]; [3],0.354
same,Fold change SLC13A4 (NM_012450),[2]; [3],10.528
same,Fold change SPOCK2 (NM_001244950),[2]; [3],5.291
same,Fold change TSPAN1 (NM_005727),[2]; [3],5.935
same,Fold change USP12-AB1 (NR_046647),[2]; [3],3.620
same,Fold change VIPR†-AS1 (NR_046654),[2]; [3],0.354
same,Fold change XIRP1 (NM_001198621),[2]; [3],0.354
same,Fold change ZFP69B (NM_023070),[2]; [3],2.708
same,Fold change ZNF432 (NM_014650),[2]; [3],4.647
same,Fold change ZNF487 (NR_026693),[2]; [3],0.354
same,Fold change ADRA2A (NM_000681),[2]; [4],0.355
same,Fold change ATRNL1 (NR_074088),[2]; [4],2.751
same,Fold change C12orf79 (NR_046159),[2]; [4],0.213
same,Fold change C14orf80 (NR_046159),[2]; [4],0.354
same,Fold change CALML3 (NM_001286399),[2]; [4],0.354
same,Fold change CCDC184 (NM_001013635),[2]; [4],4.927
same,Fold change CD37 (NM_001040031),[2]; [4],2.526
same,Fold change CDHR1 (NM_001171971),[2]; [4],0.429
same,Fold change CHL1 (NM_001253387),[2]; [4],0.360
same,Fold change COL4A3 (NM_000091),[2]; [4],2.490
same,Fold change CRLF2 (NM_022148),[2]; [4],0.357
same,Fold change CSF3R (NM_172313),[2]; [4],0.358
same,Fold change DNMBP-AS1 (NR_024130),[2]; [4],5.285
same,Fold change EGR1 (NM_001964),[2]; [4],0.437
same,Fold change GNA14 (NM_004297),[2]; [4],2.289
same,Fold change LOC728752 (NR_036504),[2]; [4],4.939
same,Fold change PAX8 (NM_003466),[2]; [4],5.800
same,Fold change PRRT3-AS1 (NR_046734),[2]; [4],2.061
same,Fold change RBP3 (NM_002900),[2]; [4],0.376
same,Fold change SEPT14 (NM_207366),[2]; [4],0.214
same,Fold change SERPINA12 (NM_001304461),[2]; [4],0.354
same,Fold change SLC13A4 (NM_012450),[2]; [4],12.386
same,Fold change SPOCK2 (NM_001244950),[2]; [4],5.054
same,Fold change TSPAN1 (NM_005727),[2]; [4],2.949
same,Fold change USP12-AB1 (NR_046647),[2]; [4],6.910
same,Fold change VIPR†-AS1 (NR_046654),[2]; [4],0.354
same,Fold change XIRP1 (NM_001198621),[2]; [4],0.354
same,Fold change ZFP69B (NM_023070),[2]; [4],4.454
same,Fold change ZNF432 (NM_014650),[2]; [4],5.319
same,Fold change ZNF487 (NR_026693),[2]; [4],0.354
